Broadly, the IC50 is the concentration at which inhibition is half-maximal. Lower therefore signals greater potency. As a reminder, the inhibition is the change of the read-out against control, counted positive when it falls. Low values mean a weak effect, high ones a strong effect.

Where a name gives a salt, the structure may show the parent alone.

Consider 20 compounds from patent US5698567A, “Heterocyclic spiro compounds” (Adir Et Compagnie, priority 1995, dated 1997).

One test relates to 5-lipoxygenase. Put plainly: Inhibition of the synthesis of LTB4 by the peritoneal PMN of rats in vitro (5-lipoxygenase-inhibiting activity). The test is classed as cell-based, rat. The settings on record: for LTB4 % Inhibition: rat peritoneal PMN; for LTB4 % Inhibition / IC50: A23187 10^-6 M; for IC50: rat peritoneal PMN in vitro. The source says: 1.1 Determination of 5-1ipoxygenase-inhibiting activity in vitro (see Goldyne M. E., Burrish G. F., Poubelle P. and Borgeat P., Arachidonic Acid Metabolism among human mononuclear leukocytes. The Journal of Biological Chemistry. Vol. 259, N° 4, p. 8815-8819, 1984, and New Chang C. and Gin Wensu. Stimulation of 5-Lipoxygenase Activity in Polymorphonuclear Leukocytes of Rats by Caseinate Treatment. Biochemical Pharmacology. Vol. 36, N° 8, p. 3033-3036, 1987).
(§1) 5-Lipoxygenase-inhibiting activity was determined on peritoneal leukocytes of rats. Leukocytosis is induced in male OFA rats (IFFA CREDO) weighing 200-250 g by the intraperitoneal injection of 12% sodium caseinate. 18 hours later, the cells are collected by washing the abdominal cavity. The number of cells is adjusted to 2×10^6 /ml.
(§2) The cell suspension is incubated for 10 minutes at 37° C. in the presence of Ca^2+ 5×10^-4 M and Mg^2+ 2×10^-3 M and of various concentrations of the test products. The cells are then stimulated with the calcium ionophore A23187 at a concentration of 10^-6 M for 5 minutes at 37° C. Controls are carded out by incubating the cells with the solvent for the products: 2% DMSO.
After stopping the reaction at +4° C. and centrifugation, the quantity of LTB4 in ng/2×10^6 cells in the supernatants is determined by the E.I.A. method (Statlergenes France). The percentage inhibition is calculated as follows: [formula]
(§3) Metabolism of arachidonic acid by the peritoneal PMN of rats stimulated
(§4) for 5 minutes in vitro by the calcium ionophore (A23187): 10^-6 M.
(§5) Incubation of the products with the cells for 10 minutes prior to
(§6) stimulation with the ionophore.

Test [1] has as its system synthesis of PGE2 by the peritoneal PMN of rats. The test can be described thus: Inhibition of the synthesis of PGE2 by the peritoneal PMN of rats in vitro. The note with it: A23187; for IC50: rat peritoneal PMN in vitro; for inhibition at 100 µM: 10^-4 M. The test is classed as cell-based, rat. As to the method: as §1, §2, §3, §4, §5, §6

Regarding `O=C1NCC2(CCN(CC(O)c3ccc(OCc4ccc5ccccc5n4)cc3)CC2)O1` (racemic) [Example 5, (R,S)-8-{2-hydroxy-2-[4-(quinol-2-ylmethoxy)phenyl]ethyl}-3,8-diaza-1-oxa-2-oxospiro[4,5]decane], the “LTB4 % Inhibition” value in the test on 5-lipoxygenase (10^-6 M) amounted to 95%; in the test on 5-lipoxygenase (10^-7 M), 15%. The compound further yielded an IC50 in test [1] of more than 100000 nM.
Consider `O=C1NCC2(CCN(CC(c3ccccc3)c3ccc(OCc4ccc5ccccc5c4)cc3)CC2)O1` (racemic) [Example 7, (R,S)-8-{2-[4-(naphth-2-ylmethoxy)phenyl]-2-phenylethyl}-3,8-diaza-1-oxa-2-oxospiro[4,5]decane], for which the “LTB4 % Inhibition” value in the test on 5-lipoxygenase (10^-7 M) came to 36%. In addition, the IC50 in the test with 5-lipoxygenase is more than 1000 nM.
The compound `O=C1NCC2(CCN(CC(c3ccccc3)c3ccc(OCc4ccc(-c5ccccc5)cn4)cc3)CC2)O1` (racemic) [Example 9, (R,S)-8-{2-phenyl-2-[4-(5-phenylpyrid-2-ylmethoxy)phenyl]ethyl}-3,8-diaza-1-oxa-2-oxospiro[4,5]decane] had an IC50 in the test with 5-lipoxygenase of more than 100 nM.
Regarding `c1ccc(C(CN2CCC3(CC2)OCCO3)c2ccc(OCc3ccc4ccccc4n3)cc2)cc1` (racemic) [Example 10, (R,S)-8-{2-phenyl-2-[4-(quinol-2-ylmethoxy)phenyl]ethyl}-8-aza-1,4-dioxaspiro[4,5]decane dihydrochloride], the results for the “LTB4 % Inhibition” value in the test with 5-lipoxygenase (10^-5 M) and in the test with 5-lipoxygenase (10^-7 M) were 92% and 28%, respectively. The compound further gave an IC50 in the test with 5-lipoxygenase of more than 100 nM.
Consider `O=C1NC2(CCN(CC(c3ccccc3)c3ccc(OCc4ccc5ccccc5n4)cc3)CC2)CO1` (racemic) [Example 11, (R,S)-8-{2-phenyl-2-[4-(quinol-2-ylmethoxy)phenyl]ethyl}-1,8-diaza-3-oxa-2-oxospiro[4,5]decane], for which the “LTB4 % Inhibition” value in the test with 5-lipoxygenase (10^-5 M) was found to be 76%; in the test with 5-lipoxygenase (10^-7 M), 38%. In the test with 5-lipoxygenase, this compound registered an IC50 of more than 100 nM.
With `O=C1OC2(CCN(CC(c3ccccc3)c3ccc(OCc4ccc5ccccc5n4)cc3)CC2)CN1CCc1ccccc1` (racemic) [Example 12, (R,S)-3-(2-phenylethyl)-8-{2-phenyl-2-[4-(quinol-2-ylmethoxy)phenyl]ethyl}-3,8-diaza-1-oxa-2-oxospiro[4,5]decane], the “LTB4 % Inhibition” value with 5-lipoxygenase (10^-5 M) was determined as 98%; in the test with 5-lipoxygenase (10^-7 M), 53%. For the same compound, the values for the 50% inhibitory concentration (IC50) (in the test on 5-lipoxygenase; in test [1]) were 100 nM and less than 10000 nM, respectively. In test [1] (rat peritoneal PMN), this compound had an inhibition at 100 µM of 86%. In test [1] (10^-5 M, rat peritoneal PMN), this compound returned an inhibition at 10 µM of 92%.
For `CC1NC(=O)OC12CCN(CC(c1ccccc1)c1ccc(OCc3ccc4ccccc4n3)cc1)CC2` (racemic) [Example 13, (R,S), (R,S)-4-methyl-8-{2-phenyl-2-[4-quinol-2-ylmethoxy)phenyl]ethyl}-3,8-diaza-1-oxa-2-oxospiro[4,5]decane], the “LTB4 % Inhibition” value with 5-lipoxygenase (10^-5 M) is reported as 91%; in the test with 5-lipoxygenase (10^-7 M) it was 21%. Besides, the IC50 in the test on 5-lipoxygenase is more than 100 nM.
Turning to `O=C1NCC2(CCN(C(c3ccccc3)c3ccc(OCc4ccc5ccccc5c4)cc3)CC2)O1` (racemic) [Example 23, (R,S)-8-{[4-(naphth-2-ylmethoxy)phenyl]phenylmethyl}-3,8-diaza-1-2-oxospiro[4,5]decane], in the test on 5-lipoxygenase (10^-7 M), the “LTB4 % Inhibition” value was 9%. Further, the concentration for half-maximal inhibition (IC50) with 5-lipoxygenase is more than 1000 nM.
Turning to `Cn1c(=O)ccc2cc(COc3ccc(C(c4ccccc4)N4CCC5(CC4)CNC(=O)O5)cc3)ccc21` (racemic) [Example 25, (R,S)-8-{[4-(1-methyl-2-oxo-1H-quinol-6-ylmethoxy)phenyl]phenylmethyl}-3,8-diaza-1-oxa-2-oxospiro[4,5]decane], the “LTB4 % Inhibition” value in the test with 5-lipoxygenase (10^-6 M) stood at 7%; in the test on 5-lipoxygenase (10^-7 M), 8%.
Take `O=C1NCC2(CCN(C(c3ccccc3)c3ccc(OCc4ccc(-c5ccccc5)cn4)cc3)CC2)O1` (racemic) [Example 26, (R,S)-8-{phenyl-[4-(5-phenylpyrid-2-ylmethoxy)phenyl]methyl}-3,8-diaza-1-oxa-2-oxospiro[4,5]decane]: the IC50 in the test on 5-lipoxygenase is more than 100 nM.
As for `O=C1NCC2(CCN(CC(Cc3ccccc3)c3ccc(OCc4ccccc4)cc3)CC2)O1` (racemic) [Example 31, (R,S)-8-[2-(4-benzyloxyphenyl)-3-phenylpropyl]-3,8-diaza-1-oxa-2-oxospiro[4,5]decane hydrochloride], in the test with 5-lipoxygenase (10^-6 M), the “LTB4 % Inhibition” value was found to be 16%. This compound also gave an IC50 in the test on 5-lipoxygenase of more than 1000 nM.
In the test with 5-lipoxygenase, `O=C1NCC2(CCN(CC(Cc3ccc(Cl)cc3)c3ccc(OCc4ccc(-c5ccccc5)cn4)cc3)CC2)O1` (racemic) [Example 35, (R,S)-8-{3-(4-chlorophenyl)-2-[4-(5-phenylpyrid-2-ylmethoxy)phenyl]propyl}-3,8-diaza-1-oxa-2-oxospiro[4,5]decane] gave an IC50 of more than 1000 nM.
Still for that read-out and setting: the value for `O=C1NCC2(CCN(CC(c3ccc(OCc4ccc5ccccc5n4)cc3)C3CCCC3)CC2)O1` (racemic) [Example 36, (R,S)-8-{2-cyclopentyl-2-[4-(quinol-2-ylmethoxy)phenyl]ethyl}-3,8-diaza-1-oxa-2-oxospiro[4,5]decane hydrochloride] was more than 100 nM.
As for `O=C1NCC2(CCN(C(=O)C(c3ccc(OCc4ccc5ccccc5n4)cc3)C3CCCC3)CC2)O1` (racemic) [Example 43, (R,S)-8-{cyclopentyl-[4-(quinol-2-ylmethoxy)phenyl]acetyl}-3,8-diaza-1-oxa-2-oxospiro[4,5]decane hydrochloride], the “LTB4 % Inhibition” value in the test with 5-lipoxygenase (10^-7 M) was determined as 8%. The IC50 in the test on 5-lipoxygenase is more than 100 nM.
On to `O=C1NCC2(CCN(CCc3ccc(OCc4ccc5ccccc5n4)cc3)CC2)O1` [Example 2, 8-{2-[4-(quinol-2-ylmethoxy)phenyl]ethyl}-3,8-diaza-1-2-oxospiro[4,5]decane], for which the “LTB4 % Inhibition” value in the test with 5-lipoxygenase (10^-6 M) was found to be 90%. Besides, in test [1] (rat peritoneal PMN), the inhibition at 100 µM turned out to be 23%. The IC50 in test [1] was more than 100000 nM.
`Cn1c(=O)ccc2cc(COc3ccc(CCN4CCC5(CC4)CNC(=O)O5)cc3)ccc21` [Example 3, 8-{2-[4-[(1-methyl-2-oxo-1H-quinol-6-yl)methoxy]phenyl]ethyl}-3,8-diaza-1-oxa-2-oxospiro[4,5]decane] showed an IC50 in the test on 5-lipoxygenase of more than 100000 nM.
Regarding `O=C1NCC2(CCN(CC(=O)c3ccc(OCc4ccc5ccccc5n4)cc3)CC2)O1` [Example 28, 8-{2-oxo-2-[4-(quinol-2-ylmethoxy)phenyl]ethyl}-3,8-diaza-1-oxa-2-oxospiro[4,5]decane], in the test on 5-lipoxygenase (10^-6 M), the “LTB4 % Inhibition” value was 37%. Besides, the IC50 with 5-lipoxygenase is more than 1000 nM.
For `O=C1NCC2(CCN(C(=O)Cc3ccc(OCc4ccc5ccccc5n4)cc3)CC2)O1` [Example 29, 8-{[4-(quinol-2-ylmethoxy)phenyl]acetyl}-3,8-diaza-1-oxa-2-oxospiro[4,5]decane], the “LTB4 % Inhibition” value turned out to be 18% with 5-lipoxygenase (10^-6 M) and 30% in the test on 5-lipoxygenase (10^-7 M). The compound also showed an IC50 in the test on 5-lipoxygenase of more than 1000 nM.
As to `O=C1NCC2(CCN(C(=O)c3ccc(OCc4ccc5ccccc5n4)cc3)CC2)O1` [Example 30, 8-[4-(quinol-2-ylmethoxy)benzoyl]-3,8-diaza-1-oxa-2-oxospiro[4,5]decane], in the test with 5-lipoxygenase (10^-6 M), the “LTB4 % Inhibition” value amounted to 14%. The concentration for half-maximal inhibition (IC50) with 5-lipoxygenase is more than 1000 nM.
`O=C1NCC2(CCN(CCc3ccccc3)CC2)O1` [fenspiride, 8(2-phenylethyl)-3,8-diaza-1-oxa-2-oxospiro[4,5]decane, reference compound]: in the test with 5-lipoxygenase (10^-4 M), the “activity of reference product tested under the same conditions (Table 1)” value is “inactive”.
